US12522597B2, “Methods and compositions for modulating splicing” (Skyhawk Therapeutics, Inc., priority 2019, dated 2026)
Where two headings read alike, the source gives them in different places.

Tests used:
[1] = test system: MDR1-MDCK cell monolayers; experiment: MDCK-MDR1 permeability assay (BBB penetration potential); type: in vitro ADME; settings: dog, MDCK-MDR1, 120 min, 5 μM, pH 7.4
Method: (§1) Each determination is performed in duplicate. […] Analytical conditions are outlined below.

MDR1 = experiment: as above; type: in vitro ADME; settings: dog; for efflux ratio at 120 min, 5 μM: MDCK-MDR1, pH 7.4, MDCK-MDR1: Efflux; for Papp A→B at 120 min, 5 μM: MDCK-MDR1, pH 7.4, MDCK-MDR1: Papp A-B; for Papp B→A at 120 min, 5 μM: MDCK-MDR1, pH 7.4, MDCK-MDR1: Papp B-A
Method: as §1

[2] = test system: Huntingtin (HTT) transcripts; experiment: Quantitative splicing assay (HTT), qPCR; type: cell-based; settings: Homo sapiens, GM04724 (CAG 70/20) Huntington's disease patient lymphoblasts, 24 h
Method: GM04724 (CAG 70/20) Huntington's disease patient lymphoblasts (Coriell) are plated in 96-wel v-bottom plates at 50,000 cells/well. Immediately after plating, cells are dosed with compound for 24 h at concentrations ranging from 2.5 uM to 0.15 nM (0.1% DMSO). Treated cells are lysed and cDNA synthesized using the Fast Advanced Cells-to-Ct kit (Thermofisher A35378) according to the manufacturer's instructions. 2 uL of each cDNA are used in qPCR reactions to confirm the compound-induced inclusion of a cryptic exon within intron 49 of the Huntingtin (HTT) transcripts. The qPCR reactions are prepared in 384-well plates in 10 uL volume, using TaqMan™ Fast Advanced Master Mix [ThermoFisher; 4444965] with primers and probes shown in the table below. Reactions are run in a Quant Studio 6 qPCR instrument with default settings.

mHTT protein = mHTT protein assay (2B7-MW1, Mesoscale Discovery); type: cell-based, human; settings: GM04724 (CAG 70/20) Huntington's disease patient lymphoblast cells, 48 hours, 2B7-MW1 MSD; read-out: HTT Potency - Protein EC50 mHTT (average)
Summary of the method: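 GM04724 Huntington's patient lymphoblasts (CAG 70/20) were treated for 48 h at 10 μM to 0.6 nM. mHTT was quantified by 2B7-MW1 MSD immunoassay, whose signal depends on polyQ expansion and HTT fragment size. Viability was run on a parallel plate by CellTiter-Glo.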

[3] = qPCR HTTex49_50, read-out: HTT Potency - Splicing: E49-50 EC50 (average)
[4] = qPCR cryptic exon 49b inclusion, read-out: HTT Potency - Splicing: E49b EC50 (average)

Structure (SMILES)	MDCK-MDR1: % Recov A-B [1] [%]	MDCK-MDR1: % Recov B-A [1] [%]	efflux ratio at 120 min, 5 μM (MDR1)	Papp A→B at 120 min, 5 μM (MDR1) [×10⁻⁶ cm/s]	Papp B→A at 120 min, 5 μM (MDR1) [×10⁻⁶ cm/s]	EC50 [2, 3] [nM]	EC50 [2, 4] [nM]	EC50 (mHTT protein) [nM]
Oc1cc(-c2cn[nH]c2)c(F)cc1-c1ccc(O[C@H]2C[C@@H]3CCC[C@@H](N3)[C@H]2F)nn1 (single isomer, unassigned) [56-ENT2]	68	79	13	2.69	36	0.01 to 15	0.01 to 15	0.01 to 15
Cn1ccc(-c2cc(O)c(-c3ccc(O[C@@H]4C[C@H]5CCC[C@H](N5)[C@@H]4F)nn3)cc2F)cc1=O (single isomer, unassigned) [58-ENT1]	97	103	49	0.92	45.1	16 to 50	16 to 50	0.01 to 15
Cn1ccc(-c2cc(O)c(-c3ccc(O[C@H]4C[C@@H]5CCC[C@@H](N5)[C@H]4F)nn3)cc2F)cc1=O (single isomer, unassigned) [58-ENT2]	83	90	47	1.17	55.1	16 to 50	16 to 50	0.01 to 15
Cn1cc(-c2ccc(-c3ccc(O[C@@H]4C[C@H]5CC[C@H](N5)[C@@H]4F)nn3)c(O)c2)cn1 (single isomer, unassigned) [60-ENT1]	68	84	4	7.46	30.5	51 to 100	16 to 50	16 to 50
Cn1cc(-c2ccc(-c3ccc(O[C@H]4C[C@@H]5CC[C@@H](N5)[C@H]4F)nn3)c(O)c2)cn1 (single isomer, unassigned) [60-ENT2]	67	78	4	8.12	31.3	16 to 50	16 to 50	51 to 100
Cn1cc(-c2cc(O)c(-c3ccc(O[C@@H]4C[C@H]5CC[C@H](N5)[C@@H]4F)nn3)cc2F)cn1 (single isomer, unassigned) [61-ENT1]	43	79	3	4.83	13.8	16 to 50	0.01 to 15	16 to 50
Cn1cc(-c2cc(O)c(-c3ccc(O[C@H]4C[C@@H]5CC[C@@H](N5)[C@H]4F)nn3)cc2F)cn1 (single isomer, unassigned) [61-ENT2]	36	71	3	4.5	12.2	16 to 50	0.01 to 15	0.01 to 15
Cn1cc(-c2cc(O)c(-c3ccc(O[C@@H]4C[C@H]5CCC[C@H](N5)[C@@H]4F)nn3)cn2)cn1 (single isomer, unassigned) [64-ENT1]	99	101	68	0.18	12.4	501 to 10000	501 to 10000	501 to 10000
Cn1cc(-c2cc(O)c(-c3ccc(O[C@H]4C[C@@H]5CCC[C@@H](N5)[C@H]4F)nn3)cn2)cn1 (single isomer, unassigned) [64-ENT2]	92	97	50	0.21	10.7	501 to 10000	501 to 10000	501 to 10000
Cn1ccc(-c2ccc(-c3ccc(O[C@@H]4C[C@H]5CCC[C@H](N5)[C@@H]4F)nn3)c(O)c2)n1 (single isomer, unassigned) [68-ENT1]	87	79	6	8.61	51.9	16 to 50	16 to 50	16 to 50
